Data as given in US20230337719A1, “ORAL PRODUCT” (Nicoventures Trading Limited, priority 2020, published 2023).

How the values were obtained:
[1] = Modern Oral Intervention Trial: in-mouth glycoside degradation of spiked oral product, HPLC quantitation; type: in vivo, human
Protocol: Test Product - An oral product was prepared based on the commercial product sold by British American Tobacco as LYFT. The product included microcrystalline cellulose as a filler. […] The samples were then left at room temperature for one day to evaporate the ethanol.
Modern Oral Intervention Trial - Three healthy volunteers (female, 30-35 years of age) were asked to place the raspberry ketone spiked oral product under their upper lip, slightly to the side of the front teeth. After 30 sec, the product was moisturised by using the tip of the tongue. After 5 min, the product was disgorged into a centrifuge tube and any salivary enzymatic processes stopped by adding methanol (5 mL, p.A.) into the centrifuge tube. The procedure was repeated with intervention times of 0 (control sample), 10 and 20 min.
Sample Preparation - The centrifuge tubes containing the oral product and methanol (5 mL, p.A.) were vortexed for 10 sec and then placed on a plate shaker for 10 min to extract the remaining raspberry ketone glycoside. Afterwards, the tubes were centrifuged (13,200 rpm, 10 min) and the supernatant decanted into a safe lock tube (2 mL). The safe lock tube was centrifuged (13,200 rpm, 10 min) and an aliquot taken for analysis.
Quantitation of in-mouth glycoside degradation - Analysis was performed on a HPLC system (Knauer, Germany) equipped with a pump (AZURA P2.1S), auto-sampler (AZURA AS 6.1L) and diode-array UV/VIS detector (AZURA DAD 6.1L). Samples were loaded onto a reversed phase C18 column (Knauer, Eurospher II 100 C18, 3 mm × 100 mm) and separated with a 10 min gradient starting at 90% solvent mixture A (0.1% formic acid in water) in solvent mixture B (0.1% formic acid in methanol) at a flow rate of 0.5 mL/min changing to 30% A in 5 min and back to 90% A in 0.05 min holding for 4.5 min. The detection UV wavelength was set at 280 nm. Quantitation was performed by using an external calibration curve.
3 healthy volunteers were asked to place raspberry ketone spiked oral products under their upper lip according to a defined procedure and leave the pouch in their mouth for 5, 10 and 20 min. The remaining glycoside of the incubated samples as well as a control sample which was not incubated was extracted as described above and quantified by means of high pressure liquid chromatography and an external calibration curve.

[2] = glucosylation of furaneol by glycosyl transferase; type: biochemical, Vitis vinifera
Text: At some instances, the present application refers to a glycosyl transferase being “capable of catalyzing” a certain reaction. For example, the present application may state that a glycosyl transferase is capable of catalyzing transfer of a sugar group from a sugar donor to a certain acceptor. This is meant to designate that under appropriate reaction conditions the rate at which the reaction product (in the example the adduct of the sugar group and the acceptor) is formed is at least 10-fold higher in the presence of said glycosyl transferase than the rate at which the reaction product is formed in a control experiment in the absence of said glycosyl transferase.

4-[4′-Hydroxy phenyl]-butan-2-one-4′-O-β-D-glucopyranoside [raspberry ketone glycoside]
amount of raspberry ketone remaining in product ([1]; 0 min (control sample, not incubated), tester P-01, product spiked with 1200 ppm raspberry ketone glycoside): 0.2 mg/mL | amount of raspberry ketone remaining in product ([1]; 0 min (control sample, not incubated), tester P-02, product spiked with 1200 ppm raspberry ketone glycoside): 0.2 mg/mL | amount of raspberry ketone remaining in product ([1]; 0 min (control sample, not incubated), tester P-03, product spiked with 1200 ppm raspberry ketone glycoside): 0.2 mg/mL | percentage release of raspberry ketone from glycoside ([1]; 0 min, tester P-01): 0% | percentage release of raspberry ketone from glycoside ([1]; 0 min, tester P-02): 0% | percentage release of raspberry ketone from glycoside ([1]; 0 min, tester P-03): 0% | amount of raspberry ketone remaining in product ([1]; 5 min in mouth, tester P-01): 0.15 mg/mL | percentage release of raspberry ketone from glycoside ([1]; 5 min in mouth, tester P-01): 25% | amount of raspberry ketone remaining in product ([1]; 5 min in mouth, tester P-02): 0.13 mg/mL | percentage release of raspberry ketone from glycoside ([1]; 5 min in mouth, tester P-02): 35% | amount of raspberry ketone remaining in product ([1]; 5 min in mouth, tester P-03): 0.16 mg/mL | percentage release of raspberry ketone from glycoside ([1]; 5 min in mouth, tester P-03): 20% | amount of raspberry ketone remaining in product ([1]; 10 min in mouth, tester P-01): 0.12 mg/mL | percentage release of raspberry ketone from glycoside ([1]; 10 min in mouth, tester P-01): 40% | amount of raspberry ketone remaining in product ([1]; 10 min in mouth, tester P-02): 0.10 mg/mL | percentage release of raspberry ketone from glycoside ([1]; 10 min in mouth, tester P-02): 50% | amount of raspberry ketone remaining in product ([1]; 10 min in mouth, tester P-03): 0.16 mg/mL | percentage release of raspberry ketone from glycoside ([1]; 10 min in mouth, tester P-03): 20% | amount of raspberry ketone remaining in product ([1]; 20 min in mouth, tester P-01): 0.06 mg/mL | percentage release of raspberry ketone from glycoside ([1]; 20 min in mouth, tester P-01): 70% | amount of raspberry ketone remaining in product ([1]; 20 min in mouth, tester P-02): 0.06 mg/mL | percentage release of raspberry ketone from glycoside ([1]; 20 min in mouth, tester P-02): 70% | amount of raspberry ketone remaining in product ([1]; 20 min in mouth, tester P-03): 0.13 mg/mL | percentage release of raspberry ketone from glycoside ([1]; 20 min in mouth, tester P-03): 35% | glycoside enzymatically cleaved ([1]; after 20 min in mouth incubation, across all panellists): 35 - 70%

B1: WGT14: terpene glycosyl transferase VvGT14 from Vitis vinifera (SEQ ID NO: 1) (protein, listed as Vitis vinifera)
chain: MGSMEKPHAVCIPYPAQGHINPMLKVAKLLHFRGFRITFVNTEFNHTRLLKAQGPNSLNGLPTFQFETIPDGLPPSNVDATQDIPSLCASTKKNCLAPFRRLLAKLNDRGPPVTCIFSDAVMSFTLDAAQELGIPDLLLWTASACGFMAYVQYRSLIDKGFTPLKDESYLTNGYLDTVVDWIPGMKGIRLKDLPSFIRTTDPDDIMLDFAMGELERARKASAIIFNTFDALEQEVLDAIAPMYPPIYTIGPLQLLPDQIHDSELKLIGSNLWKEEPECLKWLDSKEPNSVVYVNYGSITVMTPQQLIEFAWGLANSNQSFLWILRPDLVSGESAILPPEFVAETEDRGLLAGWCPQEQVLTHQAIGGFLTHNGWNSTIEGLCAGVPMICWPFFAEQQTNCRYCCTEWGVGMEIDSDVKRDEVAKLVRELMVGEKGKVMKKKTMEWKHRAEVATTGPDGSSYLNLEKIFEQVLL
capability of catalyzing glucosylation of furaneol [2]: capable of catalyzing glucosylation of furaneol
